Measurements as given in patent publication US8426437B2, “Pyrroloquinoline derivatives and their use as protein kinases inhibitors” (Pierre Fabre Medicament, priority 2005, dated 2013).
Where a name gives a salt, the structure may show the parent alone.

Molecular target: T1, RET (Homo sapiens, UniProt P07949)
T1 construct: purchased Upstate 14-570MG
Experiment: Inhibition of RET kinase activity, recombinant RET method (Kinase-Glo)
Format: biochemical
Conditions: RET 2 μg/ml, poly-EY4 substrate, 20 μM ATP, two hours at 30° C.
In short: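 Recombinant RET at 2 μg/ml in 20 mM MOPS/NaOH pH 7.0, 1 mM EDTA, 5% glycerol, 0.01% Brij35, 0.1% 2-mercaptoethanol, 1 mg/ml BSA; compounds 10 nM–30 μM final.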

T1 sequence (P07949 29-1114): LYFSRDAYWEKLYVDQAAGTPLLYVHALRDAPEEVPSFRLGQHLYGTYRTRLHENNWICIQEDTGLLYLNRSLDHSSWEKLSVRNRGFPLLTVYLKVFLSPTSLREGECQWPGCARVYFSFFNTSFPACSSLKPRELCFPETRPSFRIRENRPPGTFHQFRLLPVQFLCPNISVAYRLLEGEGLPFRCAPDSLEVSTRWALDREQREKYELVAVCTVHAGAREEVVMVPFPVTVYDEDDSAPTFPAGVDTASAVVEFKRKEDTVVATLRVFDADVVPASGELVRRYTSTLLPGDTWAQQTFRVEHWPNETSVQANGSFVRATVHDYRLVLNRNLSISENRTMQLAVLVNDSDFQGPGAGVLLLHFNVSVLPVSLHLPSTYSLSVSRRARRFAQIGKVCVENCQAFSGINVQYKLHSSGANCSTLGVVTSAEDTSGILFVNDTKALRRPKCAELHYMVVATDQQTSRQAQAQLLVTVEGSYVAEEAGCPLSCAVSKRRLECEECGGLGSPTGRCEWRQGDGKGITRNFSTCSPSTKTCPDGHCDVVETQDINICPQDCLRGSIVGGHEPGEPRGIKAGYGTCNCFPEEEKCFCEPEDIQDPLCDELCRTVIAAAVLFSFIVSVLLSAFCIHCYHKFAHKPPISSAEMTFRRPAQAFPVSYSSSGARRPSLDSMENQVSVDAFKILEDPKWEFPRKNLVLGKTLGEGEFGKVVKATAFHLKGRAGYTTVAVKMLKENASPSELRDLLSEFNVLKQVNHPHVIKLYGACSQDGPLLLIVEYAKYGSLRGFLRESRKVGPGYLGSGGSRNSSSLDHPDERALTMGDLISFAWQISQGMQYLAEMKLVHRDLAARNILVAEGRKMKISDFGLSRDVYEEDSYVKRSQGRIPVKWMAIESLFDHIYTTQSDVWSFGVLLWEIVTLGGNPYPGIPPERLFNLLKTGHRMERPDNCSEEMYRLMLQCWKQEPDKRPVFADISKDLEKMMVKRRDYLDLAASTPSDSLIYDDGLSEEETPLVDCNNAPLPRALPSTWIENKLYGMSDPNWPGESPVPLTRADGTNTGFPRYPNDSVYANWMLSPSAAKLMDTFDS

Question: How did the IC50 turn out when `CCOC(=O)c1c[nH]c2c(=O)[nH]c3ccc(/C=C/C(=O)NCc4ccccc4)cc3c12` [Compound 68, 8-(2-Benzylcarbamoyl-vinyl)-4-oxo-4,5-dihydro-3H-pyrrolo[2,3-c]quinoline-1-ethyl carboxylate] was run?
Answer: 1000 to 10000 nM

Question: How did the IC50 turn out when `CCOC(=O)c1c[nH]c2c(=O)[nH]c3ccc(S(=O)(=O)N4CCOCC4)cc3c12` [Compound 28, 8-(Morpholine-4-sulfonyl)-4-oxo-4,5-dihydro-3H-pyrrolo[2,3-c]quinoline-1-ethyl carboxylate] was run?
Answer: 100 to 1000 nM

Question: Which IC50 does the source give for `CCOC(=O)c1c[nH]c2c(=O)[nH]c3ccc(C#Cc4ccccc4)cc3c12` [Compound 201, 4-Oxo-8-phenylethynyl-4,5-dihydro-3H-pyrrolo[2,3-c]quinoline-1-ethyl carboxylate] here?
Answer: 1000 to 10000 nM

Question: How did the IC50 turn out when `CCOC(=O)c1c[nH]c2c(=O)[nH]c3ccc(-c4ccc5c(ccn5C(=O)OC(C)(C)C)c4)cc3c12` [Compound 253, 8-(1-tert-Butoxycarbonyl-1H-indol-5-yl)-4-oxo-4,5-dihydro-3H-pyrrolo[2,3-c]quinoline-1-ethyl carboxylate] was run?
Answer: 1000 to 10000 nM

Question: `CCOC(=O)c1c[nH]c2c(=O)[nH]c3ccc(S(=O)(=O)Nc4ccccc4C)cc3c12` [Compound 4, 4-Oxo-8-o-tolylsulfamoyl-4,5-dihydro-3H-pyrrolo[2,3-c]quinoline-1-ethyl carboxylate] was tested. Which IC50 did it give?
Answer: < 100 nM

Question: Which IC50 does the source give for `CCOC(=O)c1c[nH]c2c(=O)[nH]c3ccc(S(=O)(=O)Nc4cccc(F)c4C)cc3c12` [Compound 16, 8-(3-Fluoro-2-methyl-phenylsulfamoyl)-4-oxo-4,5-dihydro-3H-pyrrolo[2,3-c]quinoline-1-ethyl carboxylate] here?
Answer: < 100 nM

Question: With `CCOC(=O)c1c[nH]c2c(=O)[nH]c3ccc(NS(C)(=O)=O)cc3c12` [Compound 38, 8-Methanesulfonylamino-4-oxo-4,5-dihydro-3H-pyrrolo[2,3-c]quinoline-1-ethyl carboxylate] as the compound, how does the IC50 read?
Answer: 100 to 1000 nM

Question: With `CCOC(=O)c1c[nH]c2c(=O)[nH]c3ccc(-c4cccc(NC(=O)OC(C)(C)C)c4)cc3c12` [Compound 233, 8-(3-tert-Butoxycarbonylaminophenyl)-4-oxo-4,5-dihydro-3H-pyrrolo[2,3-c]quinoline-1-ethyl carboxylate] as the compound, how does the IC50 read?
Answer: 1000 to 10000 nM

Question: For `CC(C)COC(=O)c1c[nH]c2c(=O)[nH]c3ccc(-c4cccc(S(C)(=O)=O)c4)cc3c12` [Compound 255, 8-(3-Methanesulfonyl-phenyl)-4-oxo-4,5-dihydro-3H-pyrrolo[2,3-c]quinoline-1-isobutyl carboxylate], which IC50 is on record?
Answer: 1000 to 10000 nM

Question: With `CCCOC(=O)c1c[nH]c2c(=O)[nH]c3ccc(S(=O)(=O)N(CCNC(C)C)C4CC4)cc3c12` [Compound 142, 8-[Cyclopropyl-(2-isopropylamino-ethyl)-sulfamoyl]-4-oxo-4,5-dihydro-3H-pyrrolo[2,3-c]quinoline-1-propyl carboxylate hydrochloride] as the compound, how does the IC50 read?
Answer: 100 to 1000 nM

Question: For `CCOC(=O)c1c[nH]c2c(=O)[nH]c3ccc(S(=O)(=O)Nc4ccccc4OC)cc3c12` [Compound 7, 8-(2-Methoxy-phenylsulfamoyl)-4-oxo-4,5-dihydro-3H-pyrrolo[2,3-c]quinoline-1-ethyl carboxylate], which IC50 is on record?
Answer: 100 to 1000 nM

Question: For `CCOC(=O)c1c[nH]c2c(=O)[nH]c3ccc(-c4ccccc4)cc3c12` [Compound 228, 4-Oxo-8-phenyl-4,5-dihydro-3H-pyrrolo[2,3-c]quinoline-1-ethyl carboxylate], which IC50 is on record?
Answer: 1000 to 10000 nM

Question: How did the IC50 turn out when `CCOC(=O)c1c[nH]c2c(=O)[nH]c3ccc(NS(=O)(=O)c4ccc(C(C)=O)cc4)cc3c12` [Compound 55, 8-(4-Acetyl-benzenesulfonylamino)-4-oxo-4,5-dihydro-3H-pyrrolo[2,3-c]quinoline-1-ethyl carboxylate] was run?
Answer: 1000 to 10000 nM

Question: With `CCCOC(=O)c1c[nH]c2c(=O)[nH]c3ccc(S(=O)(=O)N4CC[C@@H](N(C)C)C4)cc3c12` [Compound 172] as the compound, how does the IC50 read?
Answer: 1000 to 10000 nM

Question: For `CCOC(=O)c1ccc(NS(=O)(=O)c2ccc3[nH]c(=O)c4[nH]cc(C(=O)OCC)c4c3c2)cc1` [Compound 14, 8-(4-Ethoxycarbonyl-phenylsulfamoyl)-4-oxo-4,5-dihydro-3H-pyrrolo[2,3-c]quinoline-1-ethyl carboxylate], which IC50 is on record?
Answer: 1000 to 10000 nM

Question: How did the IC50 turn out when `CCCOC(=O)c1c[nH]c2c(=O)[nH]c3ccc(S(=O)(=O)N(CC)[C@H]4CCNC4)cc3c12` [Compound 160, (S)-8-(Ethyl-pyrrolidin-3-yl-sulfamoyl)-4-oxo-4,5-dihydro-3H-pyrrolo[2,3-c]quinoline-1-propyl carboxylate hydrochloride] was run?
Answer: < 100 nM

Question: For `CCCOC(=O)c1c[nH]c2c(=O)[nH]c3ccc(S(=O)(=O)N(C)CC#N)cc3c12` [Compound 128, 8-(Cyanomethyl-methyl-sulfamoyl)-4-oxo-4,5-dihydro-3H-pyrrolo[2,3-c]quinoline-1-propyl carboxylate], which IC50 is on record?
Answer: 100 to 1000 nM

Question: For `CN(c1ccc(F)cc1)S(=O)(=O)c1ccc2[nH]c(=O)c3[nH]cc(C(=O)OCCO)c3c2c1` [Compound 104, 8-[(4-Fluorophenyl)-methyl-sulfamoyl]-4-oxo-4,5-dihydro-3H-pyrrolo[2,3-c]quinoline-1-2-hydroxyethyl carboxylate], which IC50 is on record?
Answer: 1000 to 10000 nM

Question: `CCOC(=O)c1c[nH]c2c(=O)[nH]c3ccc(-c4cccc(NS(C)(=O)=O)c4)cc3c12` [Compound 235, 8-(3-Methanesulfonylaminophenyl)-4-oxo-4,5-dihydro-3H-pyrrolo[2,3-c]quinoline-1-ethyl carboxylate] was tested. Which IC50 did it give?
Answer: 100 to 1000 nM

Question: `CCOC(=O)c1c[nH]c2c(=O)[nH]c3ccc(S(=O)(=O)NC)cc3c12` [Compound 27, 8-Methylsulfamoyl-4-oxo-4,5-dihydro-3H-pyrrolo[2,3-c]quinoline-1-ethyl carboxylate] was tested. Which IC50 did it give?
Answer: 100 to 1000 nM

Question: For `CCOC(=O)c1c[nH]c2c(=O)[nH]c3ccc(S(=O)(=O)N4CCc5ccccc54)cc3c12` [Compound 21, 8-(2,3-Dihydro-indole-1-sulfonyl)-4-oxo-4,5-dihydro-3H-pyrrolo[2,3-c]quinoline-1-ethyl carboxylate], which IC50 is on record?
Answer: 100 to 1000 nM

Question: For `NC(=O)C1CCCN(S(=O)(=O)c2ccc3[nH]c(=O)c4[nH]cc(C(=O)O)c4c3c2)C1` (centres unmarked) [Compound 180, 8-(3-Carbamoyl-piperidine-1-sulfonyl)-4-oxo-4,5-dihydro-3H-pyrrolo[2,3-c]quinoline-1-carboxylic acid], which IC50 is on record?
Answer: 10000 to 100000 nM

Question: `CCOC(=O)c1c[nH]c2c(=O)[nH]c3ccc(NS(=O)(=O)c4ccc(Br)cc4)cc3c12` [Compound 46, 8-(4-Bromo-benzenesulfonylamino)-4-oxo-4,5-dihydro-3H-pyrrolo[2,3-c]quinoline-1-ethyl carboxylate] was tested. Which IC50 did it give?
Answer: 100 to 1000 nM

Question: With `CCOC(=O)c1c[nH]c2c(=O)[nH]c3ccc(S(N)(=O)=O)cc3c12` [Compound 96, 4-Oxo-8-sulfamoyl-4,5-dihydro-3H-pyrrolo[2,3-c]quinoline-1-ethyl carboxylate] as the compound, how does the IC50 read?
Answer: 100 to 1000 nM

Question: How did the IC50 turn out when `CCOC(=O)c1c[nH]c2c(=O)[nH]c3cc(OC)c(I)cc3c12` [Compound 214, 8-Iodo-7-methoxy-4-oxo-4,5-dihydro-3H-pyrrolo[2,3-c]quinoline-1-ethyl carboxylate] was run?
Answer: 1000 to 10000 nM

Question: `CCOC(=O)c1c[nH]c2c(=O)[nH]c3ccc(-c4cccc5cccnc45)cc3c12` [Compound 250, 4-Oxo-8-quinolin-8-yl-4,5-dihydro-3H-pyrrolo[2,3-c]quinoline-1-ethyl carboxylate] was tested. Which IC50 did it give?
Answer: 1000 to 10000 nM
